Assays:
[1] = Intrinsic clearance; type: in vitro ADME; conditions: rat hepatic microsomes
[2] = Snapshot in vivo PK, IP plasma and brain levels; conditions: brain, 10 mg/kg
[3] = system: calcium channel, L-type; test: Ricerca Lead Profiling Screen radioligand binding
[4] = biological target: calcium channel, N-type (Homo sapiens, UniProt Q00975); test: Ricerca Lead Profiling Screen radioligand binding
[5] = system: potassium channel (KATP); test: Ricerca Lead Profiling Screen radioligand binding
[6] = biological target: potassium channel (hERG) (Homo sapiens, UniProt Q12809); test: Ricerca Lead Profiling Screen radioligand binding
Chain of potassium channel (hERG) (Q12809 whole entry): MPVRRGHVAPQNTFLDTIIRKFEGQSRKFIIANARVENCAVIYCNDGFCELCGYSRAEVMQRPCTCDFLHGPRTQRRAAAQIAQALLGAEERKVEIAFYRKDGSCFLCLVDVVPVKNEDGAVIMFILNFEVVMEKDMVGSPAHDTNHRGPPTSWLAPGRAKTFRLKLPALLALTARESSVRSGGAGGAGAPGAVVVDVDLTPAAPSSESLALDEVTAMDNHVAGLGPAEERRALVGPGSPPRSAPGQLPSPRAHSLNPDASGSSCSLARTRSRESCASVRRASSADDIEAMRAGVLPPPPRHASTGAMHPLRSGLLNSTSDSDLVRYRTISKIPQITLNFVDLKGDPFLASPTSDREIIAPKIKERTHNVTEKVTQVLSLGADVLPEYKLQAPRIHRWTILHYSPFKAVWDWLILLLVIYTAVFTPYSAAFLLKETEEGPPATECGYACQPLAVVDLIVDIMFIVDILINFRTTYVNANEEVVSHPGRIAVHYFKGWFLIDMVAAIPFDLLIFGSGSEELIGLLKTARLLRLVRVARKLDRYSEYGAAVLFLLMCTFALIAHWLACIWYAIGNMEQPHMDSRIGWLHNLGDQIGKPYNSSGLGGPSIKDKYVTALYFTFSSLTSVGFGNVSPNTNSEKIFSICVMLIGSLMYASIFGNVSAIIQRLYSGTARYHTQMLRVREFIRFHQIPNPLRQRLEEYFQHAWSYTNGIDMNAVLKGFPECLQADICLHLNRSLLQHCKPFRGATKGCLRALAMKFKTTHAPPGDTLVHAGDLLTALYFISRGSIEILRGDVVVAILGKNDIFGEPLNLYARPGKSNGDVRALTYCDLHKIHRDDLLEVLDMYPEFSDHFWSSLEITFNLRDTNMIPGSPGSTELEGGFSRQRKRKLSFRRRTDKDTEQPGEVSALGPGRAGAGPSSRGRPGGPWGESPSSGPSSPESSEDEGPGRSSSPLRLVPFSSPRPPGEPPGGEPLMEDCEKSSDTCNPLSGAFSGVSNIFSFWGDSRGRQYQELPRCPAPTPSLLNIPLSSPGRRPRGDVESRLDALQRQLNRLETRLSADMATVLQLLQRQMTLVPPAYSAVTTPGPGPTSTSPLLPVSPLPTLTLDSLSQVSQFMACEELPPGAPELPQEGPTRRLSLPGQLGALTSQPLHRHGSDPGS

[7] = biological target: KCNQ2 channels (Homo sapiens, UniProt O43526); test: KCNQ2 automated patch clamp assay; type: cell-based; conditions: for inhibition at 30 µM: read-out: KCNQ2 % at 30 μM (IC50 column, saturating response not obtained); for fold loss of potency: KCNQ2 inhibitor, compared to the unsubstituted phenyl group (5)
[8] = >300 assays performed within the MLPCN network; conditions: weakly active in each of four assays out of >300
[9] = KCNQ2, common assay system (PubChem AID: 588426) vs reported values

Chain of calcium channel, N-type (Q00975 whole entry): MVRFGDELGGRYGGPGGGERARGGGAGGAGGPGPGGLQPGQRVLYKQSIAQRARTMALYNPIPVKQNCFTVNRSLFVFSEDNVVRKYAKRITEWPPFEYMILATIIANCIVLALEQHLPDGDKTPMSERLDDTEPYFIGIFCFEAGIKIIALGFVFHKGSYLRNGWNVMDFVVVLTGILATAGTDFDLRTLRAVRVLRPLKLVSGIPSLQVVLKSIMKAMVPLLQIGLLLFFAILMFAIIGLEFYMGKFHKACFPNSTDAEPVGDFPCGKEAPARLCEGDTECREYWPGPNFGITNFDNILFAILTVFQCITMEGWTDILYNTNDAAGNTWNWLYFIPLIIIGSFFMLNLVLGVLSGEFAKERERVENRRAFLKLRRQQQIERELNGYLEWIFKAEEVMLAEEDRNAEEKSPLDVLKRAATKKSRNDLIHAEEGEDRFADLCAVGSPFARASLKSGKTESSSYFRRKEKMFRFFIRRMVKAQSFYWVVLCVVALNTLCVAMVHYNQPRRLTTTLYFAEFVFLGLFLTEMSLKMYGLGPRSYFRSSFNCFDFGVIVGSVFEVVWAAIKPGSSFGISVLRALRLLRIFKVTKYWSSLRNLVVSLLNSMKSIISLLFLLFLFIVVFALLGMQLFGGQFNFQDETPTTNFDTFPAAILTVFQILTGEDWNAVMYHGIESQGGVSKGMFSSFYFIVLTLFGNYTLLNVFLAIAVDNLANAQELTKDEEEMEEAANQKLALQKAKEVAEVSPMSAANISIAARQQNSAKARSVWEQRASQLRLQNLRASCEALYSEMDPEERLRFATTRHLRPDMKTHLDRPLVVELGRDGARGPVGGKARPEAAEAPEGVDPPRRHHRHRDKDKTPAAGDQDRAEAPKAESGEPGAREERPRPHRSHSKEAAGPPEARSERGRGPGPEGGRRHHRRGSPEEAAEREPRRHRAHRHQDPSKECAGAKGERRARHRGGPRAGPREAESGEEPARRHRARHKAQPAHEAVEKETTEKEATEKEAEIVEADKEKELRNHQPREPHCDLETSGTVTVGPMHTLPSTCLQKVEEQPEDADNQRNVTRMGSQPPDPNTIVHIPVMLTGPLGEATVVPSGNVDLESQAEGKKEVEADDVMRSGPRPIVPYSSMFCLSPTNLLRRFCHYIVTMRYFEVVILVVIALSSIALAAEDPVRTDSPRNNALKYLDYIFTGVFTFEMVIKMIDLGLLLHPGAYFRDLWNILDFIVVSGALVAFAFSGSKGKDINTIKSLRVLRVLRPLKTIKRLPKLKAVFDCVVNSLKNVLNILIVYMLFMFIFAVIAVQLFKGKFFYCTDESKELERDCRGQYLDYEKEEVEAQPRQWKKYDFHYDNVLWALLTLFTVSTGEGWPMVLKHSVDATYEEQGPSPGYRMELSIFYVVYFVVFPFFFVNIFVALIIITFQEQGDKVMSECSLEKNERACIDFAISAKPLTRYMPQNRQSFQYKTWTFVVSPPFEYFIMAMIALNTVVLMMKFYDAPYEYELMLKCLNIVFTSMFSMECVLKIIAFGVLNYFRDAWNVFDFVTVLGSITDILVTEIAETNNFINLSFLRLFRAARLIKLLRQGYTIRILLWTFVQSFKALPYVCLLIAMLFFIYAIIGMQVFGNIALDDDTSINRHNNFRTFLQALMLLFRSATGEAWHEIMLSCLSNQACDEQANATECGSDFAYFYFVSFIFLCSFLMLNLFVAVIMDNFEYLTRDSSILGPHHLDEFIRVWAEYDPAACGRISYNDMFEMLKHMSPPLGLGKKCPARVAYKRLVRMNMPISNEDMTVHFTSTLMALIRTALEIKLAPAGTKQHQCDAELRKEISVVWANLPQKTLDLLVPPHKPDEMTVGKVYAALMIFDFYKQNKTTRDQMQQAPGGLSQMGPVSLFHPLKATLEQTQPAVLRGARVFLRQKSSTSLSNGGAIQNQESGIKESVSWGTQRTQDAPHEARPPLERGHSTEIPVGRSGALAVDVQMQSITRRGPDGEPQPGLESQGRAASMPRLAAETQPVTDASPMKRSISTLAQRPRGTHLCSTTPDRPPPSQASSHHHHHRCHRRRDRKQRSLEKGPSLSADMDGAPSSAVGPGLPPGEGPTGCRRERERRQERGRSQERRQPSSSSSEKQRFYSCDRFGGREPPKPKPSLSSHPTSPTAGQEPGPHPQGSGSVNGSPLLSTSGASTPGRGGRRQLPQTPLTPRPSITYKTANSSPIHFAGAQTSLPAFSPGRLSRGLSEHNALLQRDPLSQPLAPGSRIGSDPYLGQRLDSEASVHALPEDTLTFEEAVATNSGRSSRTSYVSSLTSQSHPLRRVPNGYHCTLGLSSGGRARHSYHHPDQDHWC

SMILES	inhibition at 30 µM [7] [%]	KCNQ2 activity (in words) [7]	other results
CC[C@H](C(=O)Nc1ccccc1N1CCCC1)c1ccccc1 [(S)-5, (S)-2-Phenyl-N-(2-(pyrrolidin-1-yl)phenyl)butanamide]	–	–	Rat CLHEP [1]: 67.3 mL/min/kg; concentration at 1 h [2]: 672 nM; calcium channel L-type binding (in words) [3]: not inhibited; calcium channel N-type binding (in words) [4]: not inhibited; potassium channel KATP binding (in words) [5]: not inhibited; potassium channel hERG binding (in words) [6]: not inhibited
O=C1c2ccccc2C(Cc2ccncc2)(Cc2ccncc2)c2ccccc21 [compound 1, XE-991, reference compound]	–	–	fold more potent compared to previous values [7, 9]: 8 – 10 fold
O=C1N(c2ccccc2)c2ccccc2C1(Cc1ccncc1)Cc1ccncc1 [compound 2, Linopirdine, reference compound]	–	–	fold more potent compared to previous values [7, 9]: 8 – 10 fold
c1ccc(C(NCc2cccnc2)(c2ccccc2)c2ccccc2)cc1 [compound 3, UCL2077, reference compound]	–	–	fold less potent compared to previous values [7, 9]: ~ 7 fold
CCC(C(=O)Nc1ccccc1N1CCCC1)c1ccccc1 (stereo not drawn) [compound 5]	–	–	activity in four MLPCN assays not dependent on KCNQ2 [8]: > 15 µM
O=C(Nc1ccccc1N1CCCC1)C1(c2ccccc2)CC1 [compound 14]	–	not tolerated	–
CC(C)(C(=O)Nc1ccccc1N1CCCC1)c1ccccc1 [compound 15]	–	not tolerated	–
O=C(Nc1ccccc1N1CCCC1)C1CCOc2ccccc21 (stereo not drawn) [compound 16]	–	not tolerated	–
CCC(C(=O)N(C)c1ccccc1N1CCCC1)c1ccccc1 (stereo not drawn) [compound 18]	–	complete loss of activity	–
CCC(C(=O)Nc1ccccc1N1CCCC1)c1ccc(OC)c(OC)c1 (stereo not drawn) [compound 19]	–	–	fold loss of potency [7]: 125 fold
CCC(C(=O)Nc1ccccc1N1CCCC1)c1ccccc1Cl (stereo not drawn) [compound 30]	–	–	fold loss of potency [7]: 20 fold
O=C(Cc1cccc(Cl)c1)Nc1cccc(N2CCCC2)c1 [compound 45]	–	–	fold loss of activity ([7]; KCNQ2 activator series, 3-pyrrolidine vs 2-pyrrolidine): ~ 5 fold
O=C(Cc1cccc(Cl)c1)Nc1ccccc1N1CCCCC1 [compound 49]	–	loss of activity	–

Now from value to compound, other results behind:

inhibition at 30 µM [7] [%]	SMILES	KCNQ2 activity (in words) [7]	other results
25.4	CC(C)C(C(=O)Nc1ccccc1N1CCCC1)c1ccccc1 (stereo not drawn) [compound 9]	not tolerated	–
38	CCC(NC(=O)c1ccccc1N1CCCC1)c1ccccc1 (stereo not drawn) [compound 17]	complete loss of activity	–
32	CCC(C(=O)Nc1ccccc1N1CCCCC1)c1ccccc1 (stereo not drawn) [compound 48]	loss of activity	–
59.8	CCC(C(=O)Nc1ccccc1N(C)C)c1ccccc1 (stereo not drawn) [compound 56]	–	–
28.1	CCC(C(=O)Nc1ccccc1OC)c1ccccc1 (stereo not drawn) [compound 63]	–	–
27.1	CCC(C(=O)Nc1ccccc1N(C)Cc1ccccc1)c1ccccc1 (stereo not drawn) [compound 64]	–	–

From paper PMC3530927 (Journal of medicinal chemistry, 2012)
